In US20040096894A1, “Crystal structures of P- selectin, P- and E-selectin complexes, and uses thereof” (priority 2000, published 2004):
Numbered stars: 1 amine (or outer) side, 2 acyl side, 3 side chain; on linkers, the order of the positions; unused ones are H or OH. Square brackets hold non-standard residues; d marks the D form. Peptide text beside a SMILES is read from it. X1 = CC(=O)N[C@H]1[C@H](OC[C@H]2O[C@H](O[C@H](C)[C@H](N[*:1])C(=O)[*:2])[C@H](NC(C)=O)[C@@H](O[C@@H]3O[C@H](CO)[C@H](O)[C@H](O[C@]4(C(=O)O)C[C@H](O)[C@@H](NC(C)=O)[C@H]([C@H](O)[C@H](O)CO)O4)[C@H]3O)[C@H]2O)O[C@H](CO)[C@@H](O[C@@H]2O[C@H](CO)[C@H](O)[C@H](O[C@]3(C(=O)O)C[C@H](O)[C@@H](NC(C)=O)[C@H]([C@H](O)[C@H](O)CO)O3)[C@H]2O)[C@@H]1O[C@@H]1O[C@@H](C)[C@@H](O)[C@@H](O)[C@@H]1O; sY = N[C@@H](Cc1ccc(OS(=O)(=O)O)cc1)C(=O)O; pGlu = O=C1CC[C@@H](C(=O)O)N1

What was measured:
[1] = target: T1, P-LE (lectin/EGF domains of P-selectin) (Homo sapiens, UniProt P16109); assay: BIAcore surface plasmon resonance: solution-phase P-LE binding to immobilized sPSGL and PSGL-1 19ek peptides; conditions: immobilized ligand
T1 construct: The lectin-EGF (LE) domains (153 amino acids) of P-selectin (P-LE) and E-selectin (E-LE); IgG1 Fc (CH2-CH3 region) (C, cleaved yes); made in house; host or cells: CHO cells
T1 sequence (P16109 42-198): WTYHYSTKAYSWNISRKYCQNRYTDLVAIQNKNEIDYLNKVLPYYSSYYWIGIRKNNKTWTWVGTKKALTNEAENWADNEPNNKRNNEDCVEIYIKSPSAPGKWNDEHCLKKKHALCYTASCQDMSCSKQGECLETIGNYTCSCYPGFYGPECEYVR
Excerpt: FIGS. 1C-1-1C-6: Binding affinity determinations of solution-phase P-LE reacted with immobilized sPSGL and purified 19ek peptides by BIAcore analysis. First row, left-to-right: sPSGL (FIGS. 1C-1), SGP-3 (FIGS. 1C-2) and SGP-2 (FIGS. 1C-3). Second row, left-to-right: SGP-1 (FIGS. 1C-4), GP-1 (FIGS. 1C-5) and SP-1 (FIGS. 1C-6). P-LE at the indicated concentrations was reacted with immobilized ligands (to determine the total binding signal) and against control […] containing no ligand (to determine non-specific binding). The equilibrium responses (Req) at each concentration of P-LE are shown. At each P-LE concentration tested, specific binding signals (squares) were determined by subtracting non-specific responses (triangles) from total binding signals (diamonds). KDs and standard deviations (shown) were determined by line-fitting of specific binding curves using BIAevaluation software (BIAcore) and are the products of three-to-ten separate experiments. KD determinations using line-fitting agreed well with values determined by linear regression analysis of Scatchard plots (not shown).
P-LE/19ek Peptide Binding Studies. […] Glycosylated P-LE and E-LE, quantitated by experimentally determined extinction coefficients (280 nm), were injected over the19ek peptide, sPSGL and control surfaces at 40 μL/min. […]

[2] = test system: E-selectin relative P-selectin; conditions: Poppe et al., 1997; cited from earlier work
[3] = target: T1, P-LE (lectin/EGF domains of P-selectin); assay: BIAcore: inhibition of P-LE binding to immobilized sPSGL and SGP-3 by co-injected solution-phase peptide; conditions: P-LE at 800 nM; solution-phase inhibitor at 20 μM
Procedure: FIGS. 1B-1 and 1B-2: Representative BIAcore sensorgrams of solution-phase P-LE binding to immobilized PSGL-1 constructs. P-LE (at 800 nM concentration) was injected over sPSGL (FIGS. 1B-1) and SGP-3 (FIGS. 1B-2). […] P-LE binding to sPSGL and SGP-3 was inhibited by co-injection with solution-phase SGP-3 (dotted line) but not by a synthetic peptide containing no tyrosine sulfation or glycosylation (dashed line), both at 20 μM concentration. All curves reflect specific binding produced by subtracting non-specific binding from total binding.
P-LE/19ek Peptide Binding Studies. Surface plasmon resonance was performed on BIAcore 2000 and 3000 instruments at 25° C. using streptavidin-coated sensor chips (BIAcore) and HBS-P buffer (BIAcore; 10 mM HEPES (pH 7.4), 150 mM NaCl, and 0.005% polysorbate 20 (v/v)) adjusted to 1 mM each CaCl2 and MgCl2. The 19ek peptides and sPSGL, a fucosyltransferase-VII modified version of the entire dimeric extracellular domain of PSGL-1 (Croce et al., 1998), were biotinylated at Lys residues with Sulfo-NHS-LC-Biotin (Pierce). Following biotinylation, sPSGL was reacted with immobilized P-selectin in order to isolate functional material (Sako et al., 1995). […] Glycosylated P-LE and E-LE, quantitated by experimentally determined extinction coefficients (280 nm), were injected over the19ek peptide, sPSGL and control surfaces at 40 μL/min. […]

Compound: sPSGL: Fucosyltransferase-VII modified version of the entire dimeric extracellular domain of PSGL-1
- binding affinity of P-LE in words, compared with SGP-3 or the modified species [1]: essentially identical affinity

Compound: sialyl Lewis^X (SLe^X, NeuNAc2,3Gal1,4[Fuc1,3] GlcNAc) tetrasaccharide
- higher SLe^X binding affinity for E-selectin relative P-selectin [2]: approximately 10 fold

Compound: CSCC[C@H](NC(=O)[C@H](CCSC)NC(=O)[C@@H]1CCCN1C(=O)[C@H](CCCNC(=N)N)NC(=O)[C@@H]1CCCN1C(=O)[C@@H]1CCCN1C(=O)[C@H](CCC(=O)O)NC(=O)[C@@H](NC(=O)[C@H](CCC(=O)O)NC(=O)[C@@H]1CCCN1C(=O)[C@H](CC(C)C)NC(=O)[C@H](Cc1ccccc1)NC(=O)[C@H](CC(=O)O)NC(=O)[C@H](Cc1ccc(OS(=O)(=O)O)cc1)NC(=O)[C@H](CC(=O)O)NC(=O)[C@H](CC(C)C)NC(=O)[C@H](Cc1ccc(OS(=O)(=O)O)cc1)NC(=O)[C@H](CCC(=O)O)NC(=O)[C@H](Cc1ccc(OS(=O)(=O)O)cc1)NC(=O)[C@H](CCC(=O)O)NC(=O)[C@@H](NC(=O)[C@H](C)NC(=O)[C@@H]1CCC(=O)N1)[C@@H](C)O)[C@@H](C)O[C@H]1O[C@H](CO[C@@H]2O[C@H](CO)[C@@H](O[C@@H]3O[C@H](CO)[C@H](O)[C@H](O[C@]4(C(=O)O)C[C@H](O)[C@@H](NC(C)=O)[C@H]([C@H](O)[C@H](O)CO)O4)[C@H]3O)[C@H](O[C@@H]3O[C@@H](C)[C@@H](O)[C@@H](O)[C@@H]3O)[C@H]2NC(C)=O)[C@H](O)[C@H](O[C@@H]2O[C@H](CO)[C@H](O)[C@H](O[C@]3(C(=O)O)C[C@H](O)[C@@H](NC(C)=O)[C@H]([C@H](O)[C@H](O)CO)O3)[C@H]2O)[C@H]1NC(C)=O)C(=O)N[C@@H](CC(=O)O)C(=O)N[C@@H](CC(=O)O)C(=O)N[C@@H](CC(=O)O)C(=O)N[C@@H](CC(=O)O)C(=O)N[C@@H](CCCCN)C(=O)O [SGP-3] ([pGlu]ATE[sY]E[sY]LD[sY]DFLPE[X1]EPPRPMMDDDDK-OH; C-terminus assumed)
- inhibition of P-LE binding to immobilized sPSGL and SGP-3 by co-injection [3]: inhibited
